Measured values reported in patent publication US7605175B2, “Inhibitors of cyclin-dependent kinases, compositions and uses related thereto” (GPC Biotech AG, priority 2001, dated 2009).
Read-outs that look alike come from different tables or passages of the source.

Tests used:
arrested IMR90 cells = assay: Arrested cell assay, arrested IMR90 normal cells; type: cell-based; settings: Homo sapiens, IMR-90
Method in brief: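 IMR90 cells arrested by 3 days' serum-free culture after overnight plating at 20,000 cells/well (cycling cells kept in 10% FCS), then exposed to compound for 72 h at 37°C; 6 doses, 50 nM to 25 μM. Viability read by Calcein AM esterase fluorescence after 75 min at 37°C.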

HCT-116 cells = assay: Cell cycle analysis with propidium iodide (PI FACS); type: cell-based, human; settings: HCT-116, 24, 48 and 72 hours
Protocol: The percentage of cells in the G1, S and G2/M phases of the cell cycle was determined by staining DNA with propidium iodide and quantifying the number of cells with a 2N or 4N DNA complement by flow cytometry. Alterations in the distribution of cells across the cell cycle in response to exposure to the Cdk inhibitors was evaluated in this marmer.
3 sets of HCT-116 cells (100,000 cells/set) were cultured in the presence of a test compound in T-25 flasks according to Table 1 below. Analysis was performed at 24, 48 and 72 hours. Adherent cells were collected by trypsinization, combined with floating cells in Falcon 12×75 flow cytometric tubes, and harvested by centrifugation. The media was decanted from the cell pellet, 100 μl of PI stain was added and the cells were incubated at 37° C. for 20-25 minutes. The cell count was preferably no greater than 2×10^6-4×10^6/ml. An equal volume (100 μl) of PI salt was then added to the cells, which were then incubated at 4° C. for 1-2 hours. The stained cells were analyzed on a Becton Dickinson FACScan flow cytometer. Samples were protected from light.

arrested HCT-116 cells = assay: Arrested cell assay, arrested HCT-116 tumor cells; type: cell-based; settings: Homo sapiens
Protocol: Cyclin-dependent kinase (Cdk) activity is required to promote the progression of cells through distinct phases of the cell division cycle. The proliferation of normal, non-transformed, cells in culture requires the presence of growth factors, the removal of which, through serum deprivation, leads to a loss of Cdk activity and consequent exit from the cell cycle as cells enter the quiescent phase, G0.
HCT-116 cells were plated in triplicate for each compound concentration to be tested in RPMI 1640 media containing 10% fetal calf serum at a density of either 200 or 2,000 cells per well in 24 well dishes, and incubated overnight at 37° C., 5% CO2. The media from the plate containing 2,000 cells per well was removed, cells were washed once with serum free media and 1 ml of serum free media was placed on cells. The plates containing cells both in the presence and absence of serum were incubated for 6 additional days.
The cells are incubated in the presence of the compounds for 72 hours (3 days) at 37° C. […] Cycling and arrested HCT-116 cells as well as cycling IMR90 cells were exposed to a panel of 6 doses ranging from 5 to 250 nM. For arrested normal cells, the range of doses was increased to 50 nM to 25 μM, to compensate for the expected decrease in activity.
The effect of 72 hours of compound exposure on cellular viability was assessed in the Calcein AM assay. Calcein AM is a fluorescent substrate of intracellular esterases that are only active in viable cells. Cleavage of the substrate thus provides a measure of viability, which is proportional to cell number.
A Calcein AM stock solution was prepared by dissolving a 50 μg aliquot (Molecular Probes catalogue # C3100) in 50 μl DMSO. The tube was incubated at room temperature for approximately 10 minutes to ensure that the Calcein had dissolved completely. The calcein was diluted into 10 ml PBS to prepare the final solution, which was protected from light.
The media was aspirated off the cells, which were then washed twice with 1 ml PBS to remove the PBS completely from cells by aspiration. 0.5 ml of the Calcein/PBS solution was transferred by pipette into each well. The plates were incubated at 37° C. for 75 minutes (protected from light) and read on a fluorescent plate reader (excitation 485/20 and emission 530/25).

[1] = test system: NCI panel of 60 cell lines; assay: NCI panel of human tumor cell lines (SRB), Mean-Graph Mid-point; type: cell-based
Excerpt: The evaluation of compounds at the National Cancer Institute in their panel of 60 cell lines provides a wealth of information regarding efficacy in a wide range of tumor types and genetic backgrounds. Included within this panel are cell lines derived from leukemia, melanoma and cancers of the lung, colon, brain, ovary, breast, prostate and kidney. Use of this panel provides a measure of the efficacy of compounds in cells with alterations in many genes that are associated with neoplastic transformation including p53 and Her2/Neu as well as those involved in metabolism and those which confer multi-drug resistance. The data generated in these cell lines with the protocol described below can be used to evaluate the activity of compounds.
Cells were grown in RPMI-1640 10% FCS and plated in 96 well micro-titer plates at densities ranging from 5,000 to 40,000 cells/well. The plates were incubated for 24 hours at 37° C., 5% CO2 for 24 hours. Media containing twice the desired final concentration of the compound (5 doses spanning 4 logs) was prepared and 100 μl was added to each well containing 100 μl media plus cells to yield the desired final concentration. The plates were then incubated for an additional 48 hours.
The effect of the compound on cellular viability was determined with the Sulforhodamine B (SRB) assay, which measures total protein. Cells were fixed with cold TCA to a final concentration of 10% and incubated at 4° C. for 60 minutes. The supernatant was discarded and the plates were washed five times with water and air-dried. SRB solution at […] in 1% acetic acid was added to each well and the plates were incubated for 10 minutes at room temperature. The plates were washed five times with 1% acetic acid and air-dried. The bound stain was solubilized with 10 mM trizma base and the absorbance was read on a plate reader at […].

[2] = read-out: IC50 for arrested IMR90 cells
[3] = read-out: IC50 for arrested HCT-116 cells
[4] = NCI assay, read-out: Mean-Graph Mid-point

IC50 (arrested HCT-116 cells; serum-starved arrested cells, 72 hours, read-out: Arrested cell assay HCT IC50) [nM] | Structure (SMILES) | IC50 (arrested IMR90 cells; [2]) [nM] | Effect on cell cycle distribution (PI staining) (HCT-116 cells) | IC50 (arrested HCT-116 cells; [3]) [nM] | IC50 [1, 4] [nM] | IC50 (arrested IMR90 cells; serum-starved arrested cells, 72 hours, read-out: Arrested cell assay IMR90 IC50) [nM] | IC50 ([1]; read-out: NCI panel MG-MID (Mean-Graph Mid-point, average IC50 over the whole cell panel)) [nM]
 | COCCN1CCN(Cc2ccc(-c3[nH]nc4c3C(=O)c3c(NC(=O)NN5CCOCC5)cccc3-4)cc2)CC1.Cl.Cl [Compound B16, N-[3-(4-{[4-(2-methoxyethyl)piperazinyl]methyl}phenyl)-4-oxoindeno[2,3-d]pyrazol-5-yl](morpholin-4-ylamino)carboxamide dihydrochloride] | > 10000 | Analogous results | < 50 | < 50 |  | 
< 10 | CC(C)c1nn(-c2c(Cl)cccc2Cl)c2nc(Cc3ccc(O)c(CN4CCN(C(C)C)CC4)c3)[nH]c(=O)c12 [Compound C] |  |  |  |  | > 1000 | < 100
 | CC(C)N1CCN(C(=O)COc2ccc(-c3[nH]nc4c3C(=O)c3c(NC(=O)NN5CCOCC5)cccc3-4)cc2)CC1.Cl [Compound A37] | > 10000 | cells are terminally arrested in G1 and G2, with evidence of apoptosis and endo-reduplication | < 50 | < 50 |  | 
